Measured values taken from paper PMC10998830 (Communications Chemistry, 2024).

Assays:
[1] = biological target: T1, AbATPPRT (Acinetobacter baumannii, UniProt A0A7U3XWM9); test: differential scanning fluorimetry, SYPRO Orange; type: binding; details: 250 μM PRATP, 8 μM enzyme, pH 8.5, 15 mM MgCl2, 100 mM KCl; unlabelled enzyme
T1 construct: gene hisG; hetero-octameric holoenzyme (two HisGS dimers flanking a HisZ tetramer) reconstituted in vitro from separately purified recombinant AbHisGS (E. coli BL21(DE3)) and AbHisZ; unlabelled (natural isotope abundance)
T1 sequence (A0A7U3XWM9 1-227): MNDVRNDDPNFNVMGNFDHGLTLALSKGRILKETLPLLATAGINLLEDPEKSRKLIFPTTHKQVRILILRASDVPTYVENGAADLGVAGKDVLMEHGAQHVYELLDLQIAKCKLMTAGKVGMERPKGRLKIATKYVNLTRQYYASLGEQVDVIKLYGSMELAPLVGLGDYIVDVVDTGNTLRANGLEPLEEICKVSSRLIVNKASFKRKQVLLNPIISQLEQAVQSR
T1 sequence (B2HWK9 1-388 partner): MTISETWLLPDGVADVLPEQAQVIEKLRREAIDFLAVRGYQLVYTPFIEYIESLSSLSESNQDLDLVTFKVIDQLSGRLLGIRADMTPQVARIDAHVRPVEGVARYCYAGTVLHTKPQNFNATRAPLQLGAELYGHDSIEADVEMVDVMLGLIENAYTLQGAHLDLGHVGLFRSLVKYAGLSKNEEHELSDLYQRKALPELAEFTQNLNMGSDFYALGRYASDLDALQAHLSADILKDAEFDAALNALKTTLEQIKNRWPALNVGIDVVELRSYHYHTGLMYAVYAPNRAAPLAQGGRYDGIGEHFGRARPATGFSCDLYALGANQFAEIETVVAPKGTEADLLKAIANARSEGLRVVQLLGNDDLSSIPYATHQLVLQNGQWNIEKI

[2] = biological target: T1, AbATPPRT; test: dose-response of initial rate, PRATP formation; type: biochemical

SMILES | Tm increase [1] | IC50 [2] [µM]
N=c1c2ncn([C@@H]3O[C@H](COP(=O)(O)OP(=O)(O)OP(=O)(O)O)[C@@H](O)[C@H]3O)c2ncn1[C@@H]1O[C@H](COP(=O)(O)O)[C@@H](O)[C@H]1O [PRATP] | the presence of PRATP led only to marginal and mass-independent increases in Tm | 
N[C@@H](Cc1c[nH]cn1)C(=O)O [histidine] |  | 93 ± 6
